According to patent publication US9139658B2, “Medicament for treatment cancer” (SUMITOMO DAINIPPON PHARMA CO., LTD., priority 2000, dated 2015):
Structures can show the parent of a compound that is named as a salt. Where two headings read alike, the source gives them in different places.

Assays:
[1] = Cardiotoxicity test using monkey (combination with Herceptin); settings: rhesus monkey, intravenous, amrubicin hydrochloride at two times the dosage of doxorubicin hydrochloride
Method: The administration of amrubicin hydrochloride at a dosage of two times of doxorubicin hydrochloride is carried out on the basis of therapeutic dosages of both agents.
Into vein of a rhesus monkey, is administered doxorubicin at a dose of 2.92 mg/kg (35 mg/m^2), 7-8 times with three weeks intervals.
Accordingly, the agent-administered groups are set to be as follows:
1) agent non-administered group
2) doxorubicin hydrochloride 2-4 mg/kg, iv, 8q3W
4) amrubicin hydrochloride 4-8 mg/kg, iv, 8q3W
On 140-150 days post initiation of the administration, the animal is dissected, and histopathological diagnosis of the heart is carried out. Judging from the comparison of impairment of the myocardial cells, cardiotoxicity is evaluated.

[2] = system: Human breast cancer cell line BT-474; experiment: Evaluation of combination effects in vitro (WST-1 proliferation, Combination Index by Pegram method); type: cell-based; settings: for CI value (Combination Index) / D1 (concentration of test agent in combination required for fa): combination with Herceptin; for Df1 (concentration of test agent as single agent required for fa): fa 0.9, BT-474; for combination effect with Herceptin, overall evaluation by Combination Index: summary of Examples 1-3, BT-474
Method: The effects of the combined use were evaluated by calculating a Combination Index (CI) following a method of Pegram et al. (M. Pegram et al., Oncogene, 18, 2241-2251 (1999)). Human breast cancer cell line BT-474 (a cell line in which HER2 is highly expressed) was obtained from ATCC (American Type Culture Collection). In a medium comprising equal amount of D-MEM (Dulbecco's Modified Eagle Medium) medium and F-12 (Nutrient Mixture F-12) medium which further contains 2.5 mM L-glutamine, 10% bovine fetal serum (FCS) and 2.5 μg/ml amphotericin B, human breast cancer cell line BT-474 was subcultured. The culture was carried out in an incubator with 5% CO2 at 37° C. This medium was also used in the following experiments. HerceptinTM was dissolved in a dissolution solution attached thereto to prepare a 21 mg/ml stock solution. Thereafter, the solution was used after 2 fold serial dilutions with the medium. […] Doxorubicin hydrochloride was obtained from Kyowa Hakko Kogyo Co., Ltd. A 2 mg/ml solution was prepared by adding 5 ml of sterile water to a 10 mg vial, and the solution was used. Human breast cancer cell line BT-474 on subculture were subjected to a trypsin treatment, suspended in the medium, and seeded on a 96-well plate. The seeding density was set to be 1×10^4 cells/0.1 ml/well. After seeding, cells were cultured overnight in an incubator with 5% CO2 at 37° C. (Day 0). […] The experiments were conducted with n=3 for the agent-treated group, and with n=6 for the non-treated (control) group. Until Day 4, culture was conducted in an incubator with 5% CO2 at 37° C. […] Thereafter, culture was conducted in an incubator with 5% CO2 at 37° C. for 2-4 hours. Absorbance of the culture was then measured with MICROPLATE READER Model 3550-UV (BioRad), and living cell number was measured. […] CI and inhibition rate of proliferation fa were calculated as described above.

topoisomerase II = settings: at a concentration which leads to 50% inhibition of cell proliferation; cited from earlier work
[3] = rabbit chronic experimental model, compared with doxorubicin; cited from earlier work
[4] = metabolite obtained by reduction in vivo; cited from earlier work
[5] = in vitro experiment, Pegram et al. 1999; cited from earlier work
[6] = rhesus monkey, iv 2.92 mg/kg (35 mg/m^2), 7-8 times with three weeks intervals, 140-150 days post initiation; cited from earlier work
[7] = clinical use; cited from earlier work
[8] = compared with amrubicin and amrubicinol; cited from earlier work
[9] = dosage ratio 40:1, fa 0.9, BT-474
[10] = dosage ratio 2:1, fa 0.9, BT-474
[11] = dosage ratio 4:1, fa 0.9, BT-474
[12] = dosage ratio 8:1, fa 0.9, BT-474
[13] = dosage ratio 2:1, fa 0.9, BT-474, CI<1 synergistic, CI=1 additive

Compound | cardiotoxicity in combination with Herceptin [1] | Df1 (concentration of test agent as single agent required for fa) [2] [µg/mL] | combination effect with Herceptin, overall evaluation by Combination Index [2] | CI value (Combination Index) [2, 10] | D1 (concentration of test agent in combination required for fa) [2, 10] [µg/mL] | combination effect with Herceptin judged from CI value [2, 13] | stabilization of cleavable complex via topoisomerase II (topoisomerase II) | further results
CC(=O)[C@]1(N)Cc2c(O)c3c(c(O)c2[C@@H](O[C@H]2C[C@H](O)[C@H](O)CO2)C1)C(=O)c1ccccc1C3=O [Amrubicin hydrochloride, (+)-(7S,9S)-9-acetyl-9-amino-7-[(2-deoxy-β-D-erythro-pentopyranosyl)oxy]-7,8,9,10-tetrahydro-6,11-dihydroxy-5,12-naphthacenedione] | cardiotoxicity is not presented | 7.542 | marked synergistic effects | – | – | – | – | CI value (Combination Index) [2, 9]: 0.17; D1 (concentration of test agent in combination required for fa) [2, 9]: 1.267 µg/mL; combination effect with Herceptin judged from CI value [2, 9]: synergistic effect
CC(O)[C@]1(N)Cc2c(O)c3c(c(O)c2[C@@H](O[C@H]2C[C@H](O)[C@H](O)CO2)C1)C(=O)c1ccccc1C3=O.Cl (stereo partly drawn) [Amrubicinol hydrochloride] | – | 0.671 | marked synergistic effects | 0.38 | 0.239 | synergistic effect | – | CI value (Combination Index) [2, 11]: 0.33; D1 (concentration of test agent in combination required for fa) [2, 11]: 0.212 µg/mL; CI value (Combination Index) [2, 12]: 0.42; D1 (concentration of test agent in combination required for fa) [2, 12]: 0.279 µg/mL; combination effect with Herceptin judged from CI value ([2]; dosage ratio in the range of 2:1-8:1, fa 0.9, BT-474): synergistic effect
COc1cccc2c1C(=O)c1c(O)c3c(c(O)c1C2=O)C[C@@](O)(C(=O)CO)C[C@@H]3O[C@H]1C[C@H](N)[C@H](O)[C@H](C)O1 [Doxorubicin hydrochloride, reference compound] | cardiotoxicity is strongly presented | 0.434 | – | 0.92 | 0.373 | additive effect | – | –
CC(=O)[C@]1(N)Cc2c(O)c3c(c(O)c2[C@@H](O[C@H]2C[C@H](O)[C@H](O)CO2)C1)C(=O)c1ccccc1C3=O [amrubicin, (+)-(7S,9S)-9-acetyl-9-amino-7-[(2-deoxy-β-D-erythro-pentopyranosyl)oxy]-7,8,9,10-tetrahydro-6,11-dihydroxy-5,12-naphthacenedione] | – | – | – | – | – | – | sufficiently stabilize a cleavable complex | cardiotoxicity [3]: far less than that of doxorubicin
CC(O)[C@]1(N)Cc2c(O)c3c(c(O)c2[C@@H](O[C@H]2C[C@H](O)[C@H](O)CO2)C1)C(=O)c1ccccc1C3=O (stereo partly drawn) [amrubicinol] | – | – | – | – | – | – | sufficiently stabilize a cleavable complex | anti-cancer activity of metabolite compared with amrubicin [4]: stronger anti-cancer activity
COc1cccc2c1C(=O)c1c(O)c3c(c(O)c1C2=O)C[C@@](O)(C(=O)CO)C[C@@H]3O[C@H]1C[C@H](N)[C@H](O)[C@H](C)O1 [doxorubicin] | – | – | – | – | – | – | does not stabilize the cleavable complex | combination effect with Herceptin [5]: additive effects; histopathological observation of the heart [6]: vacuolation of myocardial cells; cardiotoxicity in combination with Herceptin [7]: cardiotoxicity is developed at a high frequency; intercalation activity [8]: about ten times stronger than those of amrubicin and amrubicinol
